Measured values published in the NIST ThermoML archive (doi:10.1016/j.jct.2008.04.010).
Where “and” joins values, the source holds several entries; their conditions need not be identical. Identical values can stand only once. ± gives the expanded uncertainty stated by the source.

Columns and labels:
[1] = for vapor or sublimation pressure: Calculated from knudsen effusion weight loss; for Normal melting temperature: DTA
[2] = Molar enthalpy of transition or fusion; settings: Crystal; DSC
[3] = molar enthalpy of vaporization or sublimation; settings: 298.15 K; Liquid; Calvet microcalorimetry

c1ccc(-c2ccc3ccccc3c2)cc1 [2-phenylnaphthalene]
[1], Crystal
Settings | vapor or sublimation pressure
333.11 K | 0.000132 ± 7e-06 kPa and 0.000137 ± 7e-06 kPa
335.63 K | 0.000185 ± 9e-06 kPa and 0.000183 ± 9e-06 kPa and 0.00018 ± 9e-06 kPa
338.2 K | 0.000244 ± 1.2e-05 kPa and 0.000239 ± 1.2e-05 kPa
340.61 K | 0.00032 ± 1.6e-05 kPa and 0.000316 ± 1.6e-05 kPa and 0.000318 ± 1.6e-05 kPa
343.13 K | 0.00042 ± 2.1e-05 kPa and 0.000421 ± 2.1e-05 kPa and 0.000419 ± 2.1e-05 kPa
345.69 K | 0.000558 ± 2.8e-05 kPa and 0.000553 ± 2.8e-05 kPa and 0.000544 ± 2.7e-05 kPa
348.12 K | 0.000729 ± 3.7e-05 kPa and 0.000707 ± 3.5e-05 kPa and 0.000716 ± 3.6e-05 kPa
350.62 K | 0.000939 ± 4.7e-05 kPa and 0.000941 ± 4.7e-05 kPa and 0.000909 ± 4.6e-05 kPa
353.19 K | 0.001212 ± 0.00013 kPa and 0.001224 ± 0.00013 kPa and 0.001185 ± 0.00012 kPa

Settings | Normal melting temperature [°C]
[1], Crystal | 100.4 ± 0.5

Settings | Molar enthalpy of transition or fusion [kJ/mol]
[2] | 17.9 ± 0.46

c1ccc(-c2cccc(-c3ccc4ccccc4c3)c2)cc1 [2-(biphen-3-yl)naphthalene]
[1], Liquid
Settings | vapor or sublimation pressure
381.08 K | 8.1e-05 ± 4e-06 kPa and 8.3e-05 ± 4e-06 kPa
385.17 K | 0.000117 ± 6e-06 kPa
389.15 K | 0.000174 ± 9e-06 kPa
389.17 K | 0.000177 ± 9e-06 kPa
393.18 K | 0.000216 ± 1.1e-05 kPa and 0.000218 ± 1.1e-05 kPa and 0.000223 ± 1.1e-05 kPa
397.15 K | 0.000323 ± 1.6e-05 kPa and 0.000303 ± 1.5e-05 kPa
397.17 K | 0.000315 ± 1.6e-05 kPa
401.14 K | 0.00041 ± 2.1e-05 kPa and 0.000429 ± 2.1e-05 kPa and 0.000427 ± 2.1e-05 kPa
405.18 K | 0.000546 ± 2.7e-05 kPa and 0.000585 ± 2.9e-05 kPa and 0.000588 ± 2.9e-05 kPa
409.08 K | 0.000767 ± 3.8e-05 kPa and 0.000773 ± 3.9e-05 kPa and 0.00079 ± 4e-05 kPa
413.17 K | 0.001087 ± 0.00011 kPa and 0.001156 ± 0.00012 kPa

Settings | Normal melting temperature [°C]
[1], Crystal | 73.2 ± 0.4

Settings | Molar enthalpy of transition or fusion [kJ/mol]
[2] | 18.5 ± 0.54

c1ccc(-c2cccc3ccccc23)cc1 [1-phenylnaphthalene]
Settings | molar enthalpy [kJ/mol]
[3] | 81 ± 3.6

c1ccc(-c2ccc(-c3ccc4ccccc4c3)cc2)cc1 [2-(biphen-4-yl)naphthalene]
[1], Crystal
Settings | vapor or sublimation pressure
405.17 K | 6.2e-05 ± 3e-06 kPa and 6.3e-05 ± 3e-06 kPa
409.14 K | 9.1e-05 ± 5e-06 kPa and 8.8e-05 ± 4e-06 kPa and 8.9e-05 ± 4e-06 kPa
411.18 K | 0.000111 ± 6e-06 kPa and 0.000112 ± 6e-06 kPa
413.18 K | 0.000131 ± 7e-06 kPa and 0.000135 ± 7e-06 kPa and 0.000134 ± 7e-06 kPa
415.14 K | 0.000164 ± 8e-06 kPa and 0.00016 ± 8e-06 kPa and 0.000161 ± 8e-06 kPa
417.19 K | 0.000197 ± 1e-05 kPa
419.09 K | 0.000237 ± 1.2e-05 kPa and 0.000235 ± 1.2e-05 kPa and 0.00023 ± 1.2e-05 kPa
421.14 K | 0.000283 ± 1.4e-05 kPa and 0.00028 ± 1.4e-05 kPa
423.09 K | 0.000339 ± 1.7e-05 kPa and 0.000342 ± 1.7e-05 kPa and 0.000336 ± 1.7e-05 kPa
425.19 K | 0.000418 ± 2.1e-05 kPa and 0.000424 ± 2.1e-05 kPa and 0.000416 ± 2.1e-05 kPa
429.21 K | 0.000609 ± 3e-05 kPa and 0.000597 ± 3e-05 kPa
433.15 K | 0.000855 ± 4.3e-05 kPa and 0.000839 ± 4.2e-05 kPa
437.19 K | 0.001171 ± 0.00012 kPa and 0.001222 ± 0.00013 kPa and 0.001194 ± 0.00012 kPa

Settings | Normal melting temperature [°C]
[1], Crystal | 216.4 ± 1.1

Settings | Molar enthalpy of transition or fusion [kJ/mol]
[2] | 25.1 ± 0.56
